From PMC6151560, “Antibacterial and Antitubercular Activities of Cinnamylideneacetophenones” (Molecules : A Journal of Synthetic Chemistry and Natural …, 2017)
Converted amounts (≈) assume the structure as drawn. Read-outs that look alike come from different tables or passages of the source.

Columns and labels:
[1] = test system: Pseudomonas aeruginosa (ATCC 15442); assay: Antibacterial broth microdilution (MIC), P. aeruginosa; conditions: for MIC: ATCC15442, 24 h, read-out: Pa MIC
[2] = test system: Streptococcus sanguinis (ATCC 10557); assay: Antibacterial broth microdilution (MIC/MBC), S. sanguinis; conditions: for MIC: ATCC10557, 24 h; for MBC: ATCC10557, read-out: Ss MBC
[3] = test system: Streptococcus mutans (ATCC 25175); assay: Antibacterial broth microdilution (MIC/MBC), S. mutans; conditions: for MIC: ATCC25175, 24 h; for MBC: ATCC25175, read-out: Sm MBC
[4] = test system: Mycobacterium tuberculosis H37Rv (ATCC 27294); assay: Antitubercular REMA (Resazurin Microtiter Assay); type: cell-based; conditions: read-out: Mt MIC
[5] = test system: Escherichia coli (ATCC 10536); assay: Antibacterial broth microdilution (MIC), E. coli; conditions: for MIC: ATCC10536, 24 h, read-out: Ec MIC
[6] = test system: Staphylococcus aureus (ATCC 14458); assay: Antibacterial broth microdilution (MIC/MBC), S. aureus; conditions: for MIC: ATCC14458, 24 h; for MBC: ATCC14458, read-out: Sa MBC
[7] = Partition coefficient log Po/w by HPLC-PDA (OECD method); conditions: for chromatographic logP: n-octanol/water (from HPLC retention on a C-18 column)
[8] = DPPH radical scavenging ability; conditions: at 1600, 800, 400, and 200 µM; DPPH 100 μM, 30 min, 25 °C
Description: The low selectivity of the cinnamylideneacetophenones 3 and 4 can be correlated with their phenolic nature. Studies report the ability of phenolic compounds to act on widespread radical processes shared by eukaryotic and prokaryotic cells. We hypothesized this behavior may be responsible by simultaneous activity toward bacteria and pulmonary cells. Therefore, we evaluated the radical scavenging ability of 3 and 4 using DPPH (2,2-diphenyl-1-picrylhydrazyl) protocol. […] Altogether, low selectivity of 3 and 4 cannot be strongly related to radical processes. Quercetin and gallic acid were used as positive controls due to their phenolic nature and potent radical scavenging ability.
Radical scavenging activity of compounds 3 and 4 was determined using 2,2-diphenyl-1-picrylhydrazyl (DPPH). Aliquots of 10 µL of 3, 4, and positive controls (quercetin and gallic acid) at concentrations 1600, 800, 400, and 200 μM (in EtOH) were individually added in 190 µL DPPH (100 μM). The mixtures were incubated in the dark at 25 °C for 30 min. Remaining DPPH was determined spectroscopically at 490 nm by blanking against absolute ethanol. Radical scavenging ability was expressed by using mean values obtained from triplicates as the percentage of radicals reduced by calculating the following equation: DPPH scavenging % = [1 − (Asample/A) × 100], where A is test absorbance without sample (only EtOH and DPPH) and Asample is test absorbance with compounds.

[9] = read-out: Ss MIC, Streptococcus sanguinis, broth microdilution, 24 h, tested 3.9 to 500 µM
[10] = read-out: Sm MIC, Streptococcus mutans, broth microdilution, 24 h, tested 3.9 to 500 µM
[11] = M. tuberculosis H37Rv, REMA, 7 days, lowest concentration giving 90% inhibition of growth
[12] = Mycobacterium tuberculosis, 168 h, M. tuberculosis H37Rv, REMA, 7 days, lowest concentration giving 90% inhibition of growth
[13] = read-out: Sa MIC, Staphylococcus aureus, broth microdilution, 24 h, tested 3.9 to 500 µM
[14] = Mycobacterium tuberculosis, 168 h
[15] = broth microdilution, 24 h, tested 3.9 to 500 µM

| Compound | MIC [1] [µM] | MIC [2, 9] [µM] | MIC [3, 10] [µM] | MIC [4, 12] [µM] | MIC [5] [µM] | MIC [6, 13] [µM] | chromatographic logP [7] | further results |
| --- | --- | --- | --- | --- | --- | --- | --- | --- |
| [H]/N=C(\N/C(=N/[H])NCCCCCCNC(=N)NC(=N)Nc1ccc(Cl)cc1)Nc1ccc(Cl)cc1 [CHX, chlorhexidine, reference compound] | 19.4 (≈ 9.81 µg/mL) | 4.7 (≈ 2.38 µg/mL) | 2.4 (≈ 1.21 µg/mL) |  |  |  |  | MBC [2]: 9.5 µM (≈ 4.8 µg/mL); MBC [3]: 4.7 µM (≈ 2.38 µg/mL) |
| O=C(/C=C/C=C/c1ccccc1)c1ccccc1 [Compound 2, (2E,4E)-1,5-diphenylpenta-2,4-dien-1-one] | > 500 | > 500 | > 500 | 57.2 to 70.9 (≈ 13.4 to 16.6 µg/mL) | > 500 | > 500 | 3.2 | MIC [4, 11]: 57.2 µM (≈ 13.4 µg/mL) |
| Nc1cccc(C(=O)/C=C/C=C/c2ccccc2)c1 [Compound 5, (2E,4E)-1-(3-aminophenyl)-5-phenylpenta-2,4-dien-1-one] | > 500 | > 500 | 313 (≈ 78 µg/mL) | > 200 | > 500 | > 500 | 2.5 | MBC [3]: 313 µM (≈ 78 µg/mL) |
| COc1cccc(C(=O)/C=C/C=C/c2ccccc2)c1 [Compound 6, (2E,4E)-1-(3-methoxyphenyl)-5-phenylpenta-2,4-dien-1-one] | > 500 | ≥ 296 | ≥ 296 | > 200 | > 500 | ≥ 296 | 3.3 | MBC [6]: 296 µM (≈ 78.2 µg/mL) |
| COc1ccc(C(=O)/C=C/C=C/c2ccccc2)cc1 [Compound 7, (2E,4E)-1-(4-methoxyphenyl)-5-phenylpenta-2,4-dien-1-one] | > 500 | ≥ 296 | ≥ 296 | 57.2 to 70.9 (≈ 15.1 to 18.7 µg/mL) | > 500 | ≥ 296 | 3.2 | MIC [4, 11]: 66.6 µM (≈ 17.6 µg/mL) |
| COc1cc(C(=O)/C=C/C=C/c2ccccc2)ccc1O [Compound 9, (2E,4E)-1-(4-hydroxy-3-methoxyphenyl)-5-phenylpenta-2,4-dien-1-one] | > 500 | > 500 | > 500 | 83.5 (≈ 23.4 µg/mL) | > 500 | 279 (≈ 78.2 µg/mL) | 2.7 | MBC [6]: 279 µM (≈ 78.2 µg/mL) |
| O=C(/C=C/C=C/c1ccccc1)c1ccc(F)cc1 [Compound 10, (2E,4E)-1-(4-fluorophenyl)-5-phenylpenta-2,4-dien-1-one] | > 500 | > 500 | > 500 | 57.2 to 70.9 (≈ 14.4 to 17.9 µg/mL) | > 500 | > 500 | 3.3 | MIC [4, 11]: 67.4 µM (≈ 17 µg/mL) |
| O=C(/C=C/C=C/c1ccccc1)c1ccc(Cl)cc1 [Compound 11, (2E,4E)-1-(4-chlorophenyl)-5-phenylpenta-2,4-dien-1-one] | > 500 |  |  |  | > 500 |  |  | MIC [4, 14]: > 200 µM; chromatographic logP (physchem): 3.7; MIC ([6]; read-out: Sa MIC): > 500 µM; MIC ([2]; read-out: Ss MIC): > 500 µM; MIC ([3]; read-out: Sm MIC): > 500 µM |
| O=C(/C=C/C=C/c1ccccc1)c1ccc(Br)cc1 [Compound 12, (2E,4E)-1-(4-bromophenyl)-5-phenylpenta-2,4-dien-1-one] | > 500 |  |  |  | > 500 |  |  | MIC [4, 14]: > 200 µM; chromatographic logP (physchem): 3.8; MIC ([6]; read-out: Sa MIC): > 500 µM; MIC ([2]; read-out: Ss MIC): > 500 µM; MIC ([3]; read-out: Sm MIC): > 500 µM |
| O=C(/C=C/C=C/c1ccccc1)c1ccc(Cl)c(Cl)c1 [Compound 13, (2E,4E)-1-(3,4-dichlorophenyl)-5-phenylpenta-2,4-dien-1-one] | > 500 | > 500 | > 500 | > 200 | > 500 | > 500 | 4.1 |  |
| O=C(/C=C/C=C/c1ccccc1)c1cccc(C(F)(F)F)c1 [Compound 14, (2E,4E)-1-(3-(trifluoromethyl)phenyl)-5-phenylpenta-2,4-dien-1-one] | > 500 | > 500 | > 500 | > 200 | > 500 | > 500 | 3.7 |  |
| O=C(/C=C/C=C/c1ccccc1)c1cccc([N+](=O)[O-])c1 [Compound 15, (2E,4E)-1-(3-nitrophenyl)-5-phenylpenta-2,4-dien-1-one] | > 500 | > 500 | > 500 | > 200 | > 500 | > 500 | 3.3 |  |
| O=C(/C=C/C=C/c1ccccc1)c1ccc([N+](=O)[O-])cc1 [Compound 16, (2E,4E)-1-(4-nitrophenyl)-5-phenylpenta-2,4-dien-1-one] | > 500 | > 500 | > 500 | > 200 | > 500 | > 500 | 3.2 |  |
| Cc1cccc(C(=O)/C=C/C=C/c2ccccc2)c1 [Compound 17, (2E,4E)-1-(3-methylphenyl)-5-phenylpenta-2,4-dien-1-one] | > 500 | > 500 | > 500 | > 200 | > 500 | > 500 | 3.6 |  |
| Cc1ccc(C(=O)/C=C/C=C/c2ccccc2)cc1 [Compound 18, (2E,4E)-1-(4-methylphenyl)-5-phenylpenta-2,4-dien-1-one] | > 500 | > 500 | > 500 | 57.2 to 70.9 (≈ 14.2 to 17.6 µg/mL) | > 500 | > 500 | 3.5 | MIC [4, 11]: 70.9 µM (≈ 17.6 µg/mL) |
| NNC(=O)c1ccncc1 [ISO, isoniazid, reference compound] |  |  |  | 0.3 (≈ 0.0411 µg/mL) |  |  |  |  |
| CC1(C)S[C@@H]2[C@H](NC(=O)Cc3ccccc3)C(=O)N2[C@H]1C(=O)O [PEN, Penicillin G, reference compound] |  | 0.4 (≈ 0.134 µg/mL) |  |  | 118 (≈ 39.5 µg/mL) |  |  | MBC [2]: 0.4 µM (≈ 0.134 µg/mL) |
| O=c1c(O)c(-c2ccc(O)c(O)c2)oc2cc(O)cc(O)c12 [Quercetin, reference compound] |  |  |  |  |  |  |  | percentages of DPPH scavenging ability [8]: ≥ 95% |
| CN[C@H](CC(C)C)C(=O)N[C@H]1C(=O)N[C@@H](CC(N)=O)C(=O)N[C@H]2C(=O)N[C@H]3C(=O)N[C@H](C(=O)N[C@H](C(=O)O)c4cc(O)cc(O)c4-c4cc3ccc4O)[C@H](O)c3ccc(c(Cl)c3)Oc3cc2cc(c3O[C@@H]2O[C@H](CO)[C@@H](O)[C@H](O)[C@H]2O[C@H]2C[C@](C)(N)[C@H](O)[C@H](C)O2)Oc2ccc(cc2Cl)[C@H]1O [VAN, vancomycin, reference compound] |  |  |  |  | 53.8 (≈ 78 µg/mL) |  |  | MIC ([6]; read-out: Sa MIC): 3.3 µM (≈ 4.78 µg/mL); MBC [6]: 6.8 µM (≈ 9.86 µg/mL); MIC ([2]; read-out: Ss MIC): 3.3 µM (≈ 4.78 µg/mL); MBC [2]: 3.3 µM (≈ 4.78 µg/mL) |
| O=C(O)c1cc(O)c(O)c(O)c1 [gallic acid, reference compound] |  |  |  |  |  |  |  | percentages of DPPH scavenging ability [8]: ≥ 95% |
| (2E,4E)-1-(3,4-methylenedioxy)-5-phenylpenta-2,4-dien-1-one [Compound 8] |  |  |  |  |  |  |  | Pa MIC ([1]; broth microdilution, 24 h): >500 µM; Ec MIC ([5]; broth microdilution, 24 h): >500 µM; Sa MIC [6, 15]: >500 µM; Ss MIC [2, 15]: >500 µM; log Po/w ([7]; n-octanol/water, HPLC-PDA method, MeOH:H2O (3:1)): 3.2; Sm MIC [3, 15]: >500 µM |
